{"source": "patent US12258332B2", "about": "“ASGPR cell surface receptor binding compounds and conjugates” (Lycia Therapeutics, Inc., priority 2021, dated 2025)", "key": {"HepG2 cells [1]": {"tested_on": "HepG2 cells", "assay": "Uptake of IgG2a antibody conjugates into HepG2 cells", "type": "cell-based, human", "conditions": "one hour incubation", "experimental": "The uptake of antibody conjugates of exemplary M6PR or ASGPR binding compounds was assessed in Hep G2 cells, using a method similar to that described in Example above."}, "HepG2 cells [2]": {"tested_on": "HepG2 cells", "assay": "Uptake of Alexa488-labelled target IgE bound to omalizumab (OMA) conjugates in HepG2 cells, flow cytometry", "type": "cell-based, human", "conditions": "omalizumab (anti-IgE) conjugate bound to IgE-Alexa488, equal molar ratios; 1 hour", "experimental": "(§1) The omalizumab conjugates of Example 60 were bound to IgE-Alexa488 (prepared according to Example 62), as follows: equal molar ratios of omalizumab (anti-IgE) conjugate and IgE-Alexa488 were added in tissue culture media for 30 minutes at room temperature. The resulting anti-IgE conjugate:IgE antibody-Alexa488 compositions were added to HepG2 cells (100 k cells/50 ul per well, n=2), and Alexa488 fluorescence levels in the cells were measured at 1 hour by flow cytometry. As the fluorescently labelled target (IgE antibody) accumulates in cells, the fluorescence presents a way to measure total intracellular uptake by cells over time.\nas §1, with “OMA Ab” for “The omalizumab”, “example compounds I-160-I-163 and I-141” for “Example 60”, “by adapting procedure in” for “according to”, “61),” for “62),”, “OMA(anti-IgE)” for “omalizumab (anti-IgE)”"}, "[3]": {"assay": "Pharmacokinetic study of OMA-linked compounds in mice, serum hIgG by ELISA", "type": "in vivo", "conditions": "IV 5 mg/kg, female C57BL/6 mice, up to 168 hours", "experimental": "Pharmacokinetic (PK) studies were undertaken to determine the pharmacokinetic profile of various OMA linked example compounds (I-161-I-163).\nProtocol: Female C57BL/6 mice are dosed via IV with 5 mg/kg of OMA-example compounds, and OMA-reference. Serum samples are collected at 0.083, 0.25, 0.5, 1, 2, 4, 8, 24, 48, 72, and 168 hours after dosing with 3 animals per timepoint.\nSerum hIgG concentrations were measured by ELISA."}, "IgE": {"tested_on": "IgE", "assay": "Pharmacodynamic study: clearance of target IgE by OMA conjugates in mice, serum hIgE by ELISA", "type": "in vivo, C57BL/6 mice", "conditions": "0.1 mg/kg of OMA conjugate, IgE 1 mg/kg", "experimental": "Protocol: Female C57BL/6 mice were IV dosed 1 mg/kg of IgE followed by 0.1, 0.3, 1, or 3 mg/kg of OMA-I-163 16 hours later. Serum samples were collected at 0 (pre-bleed), 1, 4, and 24 hours after OMA-I-163 dose with 3 animals per timepoint.\nSerum hIgE and hIgG concentrations were measured by ELISA.\nProtocol: Female C57BL/6 mice were IV dosed 1 mg/kg of IgE followed by 0.1 mg/kg of OMA-I-163, OMA-I-162, OMA-I-161, and OMA-I-160 16 hours later. Serum samples were collected at 0 (pre-bleed), 1, 4, and 24 hours after LYTAC dose with 3 animals per timepoint.\nSerum concentrations were measured by Elisa."}}, "note": "Entries after “also recorded” stand apart in the source; their conditions may differ.", "data": [{"smiles": "O=C(CCOCCOCCOCCOCCn1cc(CCCCNC(=S)Nc2ccc(O[C@H]3O[C@H](CCP(=O)(O)O)[C@@H](O)[C@H](O)[C@@H]3O)cc2)nn1)Oc1c(F)c(F)c(F)c(F)c1F", "note": "[Compound 520, reference compound]", "values": [{"measurement": "HepG2 cellular uptake of antibody conjugate (cell fluorescence, MFI)", "setting": "HepG2 cells [1]", "value": "comparable HepG2 cellular uptake; also recorded: comparable robust uptake into HepG2 cells"}]}, {"smiles": "CC(=O)N[C@H]1[C@H](OCCCCC(=O)NCCCNC(=O)CCOCC(COCCC(=O)NCCCNC(=O)CCCCO[C@@H]2O[C@H](CO)[C@H](O)[C@H](O)[C@H]2NC(C)=O)(COCCC(=O)NCCCNC(=O)CCCCO[C@@H]2O[C@H](CO)[C@H](O)[C@H](O)[C@H]2NC(C)=O)NC(=O)CCCCCCCCCCC(=O)Oc2c(F)c(F)c(F)c(F)c2F)O[C@H](CO)[C@H](O)[C@@H]1O", "note": "[Compound 1209]", "values": [{"measurement": "HepG2 cellular uptake of antibody conjugate (cell fluorescence, MFI)", "setting": "HepG2 cells [1]", "value": "comparable HepG2 cellular uptake"}]}, {"smiles": "CC(=O)N[C@H]1[C@H](OCCCCC(=O)NCCCNC(=O)CCOCC(COCCC(=O)NCCCNC(=O)CCCCO[C@@H]2O[C@H](CO)[C@H](O)[C@H](O)[C@H]2NC(C)=O)(COCCC(=O)NCCCNC(=O)CCCCO[C@@H]2O[C@H](CO)[C@H](O)[C@H](O)[C@H]2NC(C)=O)NC(=O)CCCCCCCCCCCN2C(=O)C=CC2=O)O[C@H](CO)[C@H](O)[C@@H]1O", "note": "[Compound 1210]", "values": [{"measurement": "HepG2 cellular uptake of antibody conjugate (cell fluorescence, MFI)", "setting": "HepG2 cells [1]", "value": "comparable HepG2 cellular uptake"}]}, {"smiles": "CC(=O)N[C@@H]1[C@@H](O)[C@@H](O)[C@@H](CO)O[C@H]1SCCC(=O)NCCCCCNC(=O)CCOCC(COCCC(=O)NCCCCCNC(=O)CCS[C@@H]1O[C@H](CO)[C@H](O)[C@H](O)[C@H]1NC(C)=O)(COCCC(=O)NCCCCCNC(=O)CCS[C@@H]1O[C@H](CO)[C@H](O)[C@H](O)[C@H]1NC(C)=O)NC(=O)CCCCCCCCCCC(=O)Oc1c(F)c(F)c(F)c(F)c1F", "note": "[Compound I-141, perfluorophenyl 1-(((2S,3R,4R,5R,6R)-3-acetamido-4,5-dihydroxy-6-(hydroxymethyl)tetrahydro-2H-pyran-2-yl)thio)-16,16-bis((3-((5-(3-(((2S,3R,4R,5R,6R)-3-acetamido-4,5-dihydroxy-6-(hydroxymethyl)tetrahydro-2H-pyran-2-yl)thio)propanamido)pentyl)amino)-3-oxopropoxy)methyl)-3,11,18-trioxo-14-oxa-4,10,17-triazanonacosan-29-oate]", "values": [{"measurement": "relative uptake activity of Alexa488 labeled-target IgE in HepG2 cells", "setting": "HepG2 cells [2]", "value": "superior uptake to that of the 0-glycoside"}]}, {"smiles": "CC(=O)N[C@@H]1[C@@H](O)[C@@H](O)[C@@H](CO)O[C@H]1n1cc(COCCOCCOCCNC(=O)CCC(CCC(=O)NCCOCCOCCOCc2cn([C@@H]3O[C@H](CO)[C@H](O)[C@H](O)[C@H]3NC(C)=O)nn2)(CCC(=O)NCCOCCOCCOCc2cn([C@@H]3O[C@H](CO)[C@H](O)[C@H](O)[C@H]3NC(C)=O)nn2)NC(=O)CCCCCCCCCCC(=O)Oc2c(F)c(F)c(F)c(F)c2F)nn1", "note": "[Compound I-143, perfluorophenyl 1-(1-((2R,3R,4R,5R,6R)-3-acetamido-4,5-dihydroxy-6-(hydroxymethyl)tetrahydro-2H-pyran-2-yl)-1H-1,2,3-triazol-4-yl)-15,15-bis(1-(1-((2R,3R,4R,5R,6R)-3-acetamido-4,5-dihydroxy-6-(hydroxymethyl)tetrahydro-2H-pyran-2-yl)-1H-1,2,3-triazol-4-yl)-12-oxo-2,5,8-trioxa-11-azatetradecan-14-yl)-12,17-dioxo-2,5,8-trioxa-11,16-diazaoctacosan-28-oate]", "values": [{"measurement": "relative uptake activity of Alexa488 labeled-target IgE in HepG2 cells", "setting": "HepG2 cells [2]", "value": "superior activity to the reference conjugate"}]}, {"smiles": "CC(=O)N[C@H]1[C@H](OCCCCC(=O)NCCCNC(=O)CCOCC(COCCC(=O)NCCCNC(=O)CCCCO[C@@H]2O[C@H](CO)[C@H](O)[C@H](O)[C@H]2NC(C)=O)(COCCC(=O)NCCCNC(=O)CCCCO[C@@H]2O[C@H](CO)[C@H](O)[C@H](O)[C@H]2NC(C)=O)NC(=O)CCOCCOCCOCCOCCC(=O)Oc2c(F)c(F)c(F)c(F)c2F)O[C@H](CO)[C@H](O)[C@@H]1O", "note": "[Compound I-145]", "values": [{"measurement": "relative uptake activity of Alexa488 labeled-target IgE in HepG2 cells", "setting": "HepG2 cells [2]", "value": "superior uptake to conjugates having a valency of 2 or 1"}]}, {"smiles": "CO[C@@H]1O[C@H](CO)[C@H](O)[C@H](O)[C@H]1NC(=O)COCCc1cn(CCOCCOCCNC(=O)CCC(CCC(=O)NCCOCCOCCn2cc(CCOCC(=O)N[C@H]3[C@H](OC)O[C@H](CO)[C@H](O)[C@@H]3O)nn2)(CCC(=O)NCCOCCOCCn2cc(CCOCC(=O)N[C@H]3[C@H](OC)O[C@H](CO)[C@H](O)[C@@H]3O)nn2)NC(=O)CCCCCCCCCCC(=O)Oc2c(F)c(F)c(F)c(F)c2F)nn1", "note": "[Compound I-155]", "values": [{"measurement": "relative uptake activity of Alexa488 labeled-target IgE in HepG2 cells", "setting": "HepG2 cells [2]", "value": "less active than the 1-position linked conjugate"}]}, {"smiles": "CC(=O)N[C@@H]1[C@@H](O)[C@@H](O)[C@@H](CO)O[C@H]1Cc1cn(CCOCCOCCOCCNC(=O)CCC(CCC(=O)NCCOCCOCCOCCn2cc(C[C@@H]3O[C@H](CO)[C@H](O)[C@H](O)[C@H]3NC(C)=O)nn2)(CCC(=O)NCCOCCOCCOCCn2cc(C[C@@H]3O[C@H](CO)[C@H](O)[C@H](O)[C@H]3NC(C)=O)nn2)NC(=O)CCCCCCCCCCC(=O)NCCN2C(=O)C=CC2=O)nn1", "note": "[Compound I-160]", "values": [{"measurement": "relative uptake activity of Alexa488 labeled-target IgE in HepG2 cells", "setting": "HepG2 cells [2]", "value": "most active anomeric position variants"}, {"measurement": "PK profile / clearance of OMA-linked compound (serum hIgG)", "setting": "[3]", "value": "distinct PK profiles from reference compound I-163"}, {"measurement": "IgE clearance efficiency compared to reference OMA-I-163", "setting": "IgE", "value": "clear IgE more efficiently than the reference compound"}]}, {"smiles": "CC(=O)N[C@@H]1[C@@H](O)[C@@H](O)[C@@H](CO)C[C@H]1n1cc(COCCOCCOCCNC(=O)CCC(CCC(=O)NCCOCCOCCOCc2cn([C@@H]3O[C@H](CO)[C@H](O)[C@H](O)[C@H]3NC(C)=O)nn2)(CCC(=O)NCCOCCOCCOCc2cn([C@@H]3O[C@H](CO)[C@H](O)[C@H](O)[C@H]3NC(C)=O)nn2)NC(=O)CCCCCCCCCCC(=O)NCCN2C(=O)C=CC2=O)nn1", "note": "[Compound I-161]", "values": [{"measurement": "relative uptake activity of Alexa488 labeled-target IgE in HepG2 cells", "setting": "HepG2 cells [2]", "value": "essentially identical activity to the reference conjugate; also recorded: most active anomeric position variants"}, {"measurement": "PK profile / clearance of OMA-linked compound (serum hIgG)", "setting": "[3]", "value": "distinct PK profiles from reference compound I-163"}, {"measurement": "IgE clearance efficiency compared to reference OMA-I-163", "setting": "IgE", "value": "clear IgE more efficiently than the reference compound"}]}, {"smiles": "CC(=O)N[C@@H]1[C@@H](O)[C@@H](O)[C@@H](CO)O[C@H]1SCCC(=O)NCCCCCNC(=O)CCOCC(COCCC(=O)NCCCCCNC(=O)CCS[C@@H]1O[C@H](CO)[C@H](O)[C@H](O)[C@H]1NC(C)=O)(COCCC(=O)NCCCCCNC(=O)CCS[C@@H]1O[C@H](CO)[C@H](O)[C@H](O)[C@H]1NC(C)=O)NC(=O)CCCCCCCCCCC(=O)NCCN1C(=O)C=CC1=O", "note": "[Compound I-162]", "values": [{"measurement": "relative uptake activity of Alexa488 labeled-target IgE in HepG2 cells", "setting": "HepG2 cells [2]", "value": "most active anomeric position variants"}, {"measurement": "PK profile / clearance of OMA-linked compound (serum hIgG)", "setting": "[3]", "value": "distinct PK profiles from reference compound I-163"}, {"measurement": "IgE clearance efficiency compared to reference OMA-I-163", "setting": "IgE", "value": "clear IgE more efficiently than the reference compound"}]}]}
